Data: PMC11124940, “Sweeteners Show a Plasticizing Effect on PVP K30—A Solution for the Hot-Melt Extrusion of Fixed-Dose Amorphous Curcumin-Hesperetin Solid Dispersions” (Pharmaceutics, 2024)
Converted amounts (≈) assume the structure as drawn. Read-outs that look alike come from different tables or passages of the source.

Experiments:
[1] = PAMPA, 4 h, pH 7.4
Description: Concentrations of curcumin and hesperetin in samples collected during solubility, dissolution, and permeability studies were determined using HPLC with the DAD detector (HPLC-DAD). Shimadzu Nexera (Shimadzu Corp., Kyoto, Japan) equipped with an SCL-40 system controller, a DGU-403 degassing unit, an LC-40B XR solvent delivery module, a SIL-40C autosampler, a CTO-40C column oven, and an SPD-M40 photodiode array detector were employed in this investigation. For the stationary phase, a Dr. Maisch ReproSil-Pur Basic-C18 100 Å column with 5 µm particle size and 250 × 4.60 mm (Dr. Maisch, Ammerbuch-Entringen, Germany) was used. The mobile phase was HPLC-grade methanol:0.1% acetic acid (80:20 v/v). The mobile phase was vacuum filtered through a 0.45 µm nylon filter (Phenomenex, Torrance, CA, USA). The experimental conditions were as follows: a 1.0 mL/min flow rate, a wavelength of 420 nm for curcumin and 288 nm for hesperetin, and a column temperature of 30 °C. The injection volume differed depending on the assay. For the solubility study, it was 2 µL, whereas for the dissolution and permeability assays, it was 10 µL. […]
In vitro, gastrointestinal (GIT) and blood–brain barrier (BBB) permeability was studied using the Parallel Artificial Membrane Permeability Assay (PAMPA) models. […] The results are expressed as a concentration of the compound in the acceptor solution.

[2] = PAMPA GIT permeability assay; format: in vitro ADME; details: GIT model, donor pH ≈6.8, 4 h, 37 °C
Description: (§1) The injection volume differed depending on the assay. […] The duration of the run was 10 min.

[3] = Apparent solubility study (24 h, 25 °C, HPLC); format: physicochemical
Description: as §1
Phosphate buffer at pH 6.8 was prepared as follows: 250 mL of 0.2 N potassium dihydrogen phosphate solution was placed in a 1000 mL volumetric flask, and then 112 mL of 0.2 N sodium hydroxide solution was added. The volume was made up to 1000 mL with purified water. Hydrochloric acid solution pH 1.2 was prepared from the analytically weighed amount following the manufacturer’s (Alfachem, Poznań, Poland) recommendations.
An excess amount of powder (corresponding to 6 mg of each active substance) was placed in a 10 mL glass tube. Then, 2.0 mL of phosphate buffer (pH 6.8) or HCl solution (pH 1.2) was added and stirred at 100 rpm at room temperature (25 ± 0.1 °C) for 24 h.

Curcumin Concentration in the acceptor solution [1]	Curcumin Concentration in the acceptor solution [2]	solubility at 24 h ([3]; HCl solution, pH 1.2 HCl, read-out: Curcumin Concentration (apparent solubility)) [µg/mL]	solubility at 24 h ([3]; aqueous buffer, thermodynamic from solid, pH 6.8 phosphate buffer, read-out: Curcumin Concentration (apparent solubility)) [µg/mL]	Hesperetin Concentration in the acceptor solution [1]	Hesperetin Concentration in the acceptor solution [2]	solubility at 24 h ([3]; HCl solution, simulated gastric fluid, thermodynamic from solid, pH 1.2 HCl, read-out: Hesperetin Concentration (apparent solubility)) [µg/mL]	solubility at 24 h ([3]; aqueous buffer, thermodynamic from solid, pH 6.8 phosphate buffer, read-out: Hesperetin Concentration (apparent solubility)) [µg/mL]	Compound
1.86 × 10^−5 ± 2.48 × 10^−6 c mg/mL	3.34 × 10^−6 ± 1.94 × 10^−6 c mg/mL	0.1 ± 0.01 (≈ 0.271 µM)	0.14 ± 0.02 (≈ 0.38 µM)	–	–	–	–	COc1cc(/C=C/C(=O)CC(=O)/C=C/c2ccc(O)c(OC)c2)ccc1O [Curcumin]
–	–	–	–	3.89 × 10^−5 ± 1.66 × 10^−5 c mg/mL	2.58 × 10^−5 ± 6.16 × 10^−6 c mg/mL	4 ± 1 (≈ 13.2 µM)	5 ± 1 (≈ 16.5 µM)	COc1ccc([C@@H]2CC(=O)c3c(O)cc(O)cc3O2)cc1O [Hesperetin]
